From ChEMBL document CHEMBL4477214 come the findings set out here.

SMILES strings stand for the structures.

The subject of the first data set is Influenza A virus. The data set can be described thus: Antiviral activity against influenza A virus H1N1 ATCC VR-1737 infected in MDCK cells after 48 hrs by hemagglutination assay. The note with it: H1N1 ATCC VR-1737, MDCK. In kind it is functional, organism-based.
The term EC50 denotes the concentration needed to bring the measured effect to its halfway point. `O=C(O)/C(O)=C/C(=O)C1(Cc2ccc(Cl)cc2)CCN(Cc2ccccc2)CC1` returned an EC50 of 9 µM.

The test system of a further data set is MDCK. The data set can be described thus: Cytotoxicity against MDCK cells after 48 hrs by cell-titre glo luminescence assay. Format: cell-based, Canis lupus familiaris. As to conditions: dog.
What is called CC50 is the concentration at which the toxic effect on the cells reaches its halfway point. Low readings indicate harm at low concentration, high ones better tolerance by the cells. For the compound `O=C(O)/C(O)=C/C(=O)C1(Cc2ccc(Cl)cc2)CCN(Cc2ccccc2)CC1`, the midpoint of cytotoxicity, the CC50, lay at 284 µM.

As for `CN(Cc1cc(=O)c(O)cn1-c1ccc(-c2nnn[nH]2)cc1)c1ccc(Cl)cc1`, half-maximal cytotoxicity (CC50) was put at 280 µM.

For a further data set, the target named is Polymerase acidic protein (Influenza A virus (A/Puerto Rico/8/1934(H1N1)), UniProt P03433). The data set can be described thus: Inhibition of 8-histidine tagged influenza virus H1N1 N-terminal PA endonuclease expressed in Escherichia coli BL21 cells using single-stranded 5'-FAM fluorophore/3'-TAMRA quencher)-labeled 17-mer ssDNA-oligomer substrate measured over 45 mins by FRET analysis.
Conditions: not given
For orientation: IC50 means the midpoint of a concentration-inhibition curve. Lower therefore signals greater potency. As for `Cc1c(O)c(=O)ccn1-c1ccccc1`, the midpoint of inhibition, the IC50, lay at 18 µM.

As to `CCOC(=O)c1c(C)n(-c2ccccc2)cc(O)c1=O`, half-maximal inhibition (IC50) was put at 5.3 µM.

In turn, `CCOC(=O)c1c(C)n(-c2ccc(Oc3ccccc3)cc2)cc(O)c1=O` yielded an IC50 of 5.2 µM.

In the case of `Cc1cc(=O)c(O)cn1C1CCOCC1`, the IC50 was determined as 0.73 µM.

`CS(=O)(=O)NCc1cc(=O)c(O)co1` registered a 50% inhibitory concentration (IC50) of 4.8 µM.

In the case of `Cc1c(O)c(=O)ccn1C1CCCCC1`, the IC50 is 14 µM.

In general, pIC50 refers to −log10 of the IC50, conventionally taken in molar units. `CN(Cc1cc(=O)c(O)co1)c1ccncc1` yielded an IC50 greater than 100 µM and a pIC50 of less than 4.

On to `CN(Cc1cc(=O)c(O)co1)c1ccc(F)cc1`, for which half-maximal inhibition (IC50) was put at 1.8 µM.

In turn, `CN(Cc1cc(=O)c(O)co1)c1cccc(F)c1` returned an IC50 of 3.2 µM.

In turn, `COc1cccc(CNC(=O)c2c(C)occ(O)c2=O)c1` yielded an IC50 of 22.1 µM.

`Cc1occ(O)c(=O)c1C(=O)NCCc1ccccc1` yielded an IC50 of 11.3 µM.

For `O=c1cc(CNCc2ccccc2)occ1O`, the IC50 was determined as 2.7 µM.

`Cc1cc(=O)c(O)cn1-c1ccc(-c2ccccc2)cc1` displayed an IC50 of 1.3 µM.
